Inhibition and IC50 data for 10 compounds are collected here from patent US9771341B2, “Piperazine carbamates and methods of making and using same” (Abide Therapeutics, Inc., priority 2015, dated 2017).

Assay [1] has as its target T1, MAGL (Mus musculus, UniProt O35678).
T1 construct: Proteomes (mouse brain membrane fraction or cell lysates); from tissue; host or cells: mouse brain membrane fraction (or unspecified cell lysates)
T1 sequence (O35678 1-303): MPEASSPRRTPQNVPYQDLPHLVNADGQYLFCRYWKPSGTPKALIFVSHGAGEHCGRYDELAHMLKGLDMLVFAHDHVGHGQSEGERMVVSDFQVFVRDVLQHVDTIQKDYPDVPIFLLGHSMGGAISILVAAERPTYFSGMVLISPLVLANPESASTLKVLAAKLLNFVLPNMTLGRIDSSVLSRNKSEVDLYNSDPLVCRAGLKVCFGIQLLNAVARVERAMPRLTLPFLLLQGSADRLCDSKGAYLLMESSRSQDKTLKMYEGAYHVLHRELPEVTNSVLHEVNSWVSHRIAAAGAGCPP
The assay is described as follows: In vitro competitive activity-based protein profiling (mouse), MAGL. Format: biochemical. Conditions: for inhibition at 1 µM: mouse proteome, in vitro, read-out: % Inhibition at 1 μM MAGL; for IC50: mouse brain membrane fraction or cell lysates, 30 min preincubation at 37° C, FP-Rh probe. Here is the method: (§1) In Vitro Competitive Activity-Based Protein Profiling (Mouse).
(§2) Proteomes (mouse brain membrane fraction or cell lysates) (50 μL, 1.0 mg/mL total protein concentration) were preincubated with varying concentrations of inhibitors at 37° C. After 30 min, FP-Rh (1.0 μL, 50 μM in DMSO) was added and the mixture was incubated for another 30 min at 37° C. Reactions were quenched with SDS loading buffer (50 μL-4×) and run on SDS-PAGE.

For assay [2], the target named is T2, FAAH (Mus musculus, UniProt O08914).
T2 construct: Proteomes (mouse brain membrane fraction or cell lysates); from tissue; host or cells: mouse brain membrane fraction (or unspecified cell lysates)
T2 sequence (O08914 1-579): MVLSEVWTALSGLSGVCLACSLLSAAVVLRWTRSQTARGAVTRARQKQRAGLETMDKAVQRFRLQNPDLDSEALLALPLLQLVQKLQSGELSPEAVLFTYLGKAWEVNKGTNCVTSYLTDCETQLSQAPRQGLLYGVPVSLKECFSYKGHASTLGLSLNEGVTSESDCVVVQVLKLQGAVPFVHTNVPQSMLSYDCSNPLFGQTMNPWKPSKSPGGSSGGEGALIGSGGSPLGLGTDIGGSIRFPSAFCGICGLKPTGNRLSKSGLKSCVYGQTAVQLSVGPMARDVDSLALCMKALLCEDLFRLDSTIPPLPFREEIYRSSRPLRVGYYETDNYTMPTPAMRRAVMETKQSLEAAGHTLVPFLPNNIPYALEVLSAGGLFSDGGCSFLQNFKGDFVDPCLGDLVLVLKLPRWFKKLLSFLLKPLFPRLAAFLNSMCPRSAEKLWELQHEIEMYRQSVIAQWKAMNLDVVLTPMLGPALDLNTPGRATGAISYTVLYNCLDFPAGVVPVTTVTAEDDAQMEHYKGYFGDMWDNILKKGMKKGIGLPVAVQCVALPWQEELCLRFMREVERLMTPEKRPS
The assay is described as follows: In vitro competitive activity-based protein profiling (mouse), FAAH. It counts as biochemical. Conditions: for inhibition at 1 µM: mouse proteome, in vitro; for IC50: mouse brain membrane fraction or cell lysates, 30 min preincubation at 37° C, FP-Rh probe. Put shortly: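 Mouse brain membrane fraction or cell lysates (1.0 mg/mL protein) preincubated with inhibitors 30 min at 37° C, then FP-Rh probe 30 min at 37° C. SDS-PAGE fluorescence band intensity gave FAAH activity.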

For assay [3], the target named is T3, ABHD6 (Mus musculus, UniProt Q8R2Y0).
T3 construct: Proteomes (mouse brain membrane fraction or cell lysates); from tissue; host or cells: mouse brain membrane fraction (or unspecified cell lysates)
T3 sequence (Q8R2Y0 1-336): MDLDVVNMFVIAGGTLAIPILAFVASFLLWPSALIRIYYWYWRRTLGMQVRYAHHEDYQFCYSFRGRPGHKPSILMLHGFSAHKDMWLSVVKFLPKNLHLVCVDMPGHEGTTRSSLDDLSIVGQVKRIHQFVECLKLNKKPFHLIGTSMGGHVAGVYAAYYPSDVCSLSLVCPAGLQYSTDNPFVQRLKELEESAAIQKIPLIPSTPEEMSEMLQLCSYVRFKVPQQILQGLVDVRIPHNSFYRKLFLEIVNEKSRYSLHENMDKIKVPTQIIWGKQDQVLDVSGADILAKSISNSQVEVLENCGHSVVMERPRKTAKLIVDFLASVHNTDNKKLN
The assay is described as follows: In vitro competitive activity-based protein profiling (mouse), ABHD6. Format: biochemical. Conditions: for inhibition at 1 µM: mouse proteome, in vitro, read-out: % Inhibition at 1 μM ABHD6; for IC50: mouse brain membrane fraction or cell lysates, 30 min preincubation at 37° C, FP-Rh probe. Here is the method: as §1, §2

Assay [4] deals with T1, MAGL. The assay is described as follows: Mouse brain proteomes from inhibitor treated mice, MAGL. Conditions: 5 mg/kg oral gavage, C57Bl/6J mice, brain proteome 4 h after administration. It counts as in vivo. Here is the method:
(§3) Preparation of Mouse Brain Proteomes from Inhibitor Treated Mice.
(§4) Inhibitors were administered to wild-type C57Bl/6J by oral gavage in a vehicle of polyethylene glycol.

Assay [5] deals with T2, FAAH. The assay is described as follows: Mouse brain proteomes from inhibitor treated mice, FAAH. Conditions: 5 mg/kg oral gavage, C57Bl/6J mice, brain proteome 4 h after administration. Format: in vivo. Here is the method:
as §3
Inhibitors were administered to wild-type C57Bl/6J by oral gavage in a vehicle of polyethylene glycol. Each animal was sacrificed 4 h following administration and brain proteomes were prepared and analyzed according to previously established methods (See Niphakis, M. J., et al. (2011) ACS Chem. Neurosci. and Long, J. Z., et al. Nat. Chem. Biol. 5:37-44)

In assay [6] the target is T3, ABHD6. The assay is described as follows: Mouse brain proteomes from inhibitor treated mice, ABHD6. It counts as in vivo. Conditions: 5 mg/kg oral gavage, C57Bl/6J mice, brain proteome 4 h after administration. Here is the method:
as §3, §4

Molecules are shown by their SMILES.

Take `O=C(OC(C(F)(F)F)C(F)(F)F)N1CCN(Cc2ccc(Cl)cc2N2CC[C@@H](N3CCCCC3=O)C2)CC1` [Example 43, 1,1,1,3,3,3-hexafluoropropan-2-yl (R)-4-(4-chloro-2-(3-(2-oxopiperidin-1-yl)pyrrolidin-1-yl)benzyl)piperazine-1-carboxylate]: the inhibition at 1 µM in assay [1] was over 75%; in assay [2], under 25%; in assay [3], under 25%. For the same compound, the half-maximal inhibitory concentration (IC50) was under 100 nM in assay [1], over 1000 nM in assay [2] and over 1000 nM in assay [3]. In addition, the inhibition at 5 mg/kg in assay [4] is 25 to 75%; in assay [5], under 25%; in assay [6], under 25%.
With `O=C(OC(C(F)(F)F)C(F)(F)F)N1CCN(Cc2ccc(Cl)cc2N2CC[C@H](N3CCCCC3=O)C2)CC1` [Example 44, 1,1,1,3,3,3-hexafluoropropan-2-yl (S)-4-(4-chloro-2-(3-(2-oxopiperidin-1-yl)pyrrolidin-1-yl)benzyl)piperazine-1-carboxylate], the inhibition at 1 µM was over 75% in assay [1], under 25% in assay [2] and under 25% in assay [3]. The half-maximal inhibitory concentration (IC50) in assay [1] is under 100 nM; in assay [2] it was over 1000 nM; in assay [3] it was over 1000 nM. Further, the inhibition at 5 mg/kg in assay [4], in assay [5] and in assay [6] was under 25% each time.
In the case of `O=C(OC(C(F)(F)F)C(F)(F)F)N1CCN(Cc2ccc(Cl)cc2N2CC[C@@H](N3CCCS3(=O)=O)C2)CC1` [Example 45, 1,1,1,3,3,3-hexafluoropropan-2-yl (R)-4-(4-chloro-2-(3-(1,1-dioxidoisothiazolidin-2-yl)pyrrolidin-1-yl)benzyl)piperazine-1-carboxylate], the inhibition at 1 µM is over 75% in assay [1], under 25% in assay [2] and over 75% in assay [3]. Further, the IC50 was under 100 nM in assay [1], over 1000 nM in assay [2] and 100 to 1000 nM in assay [3]. Moreover, the inhibition at 5 mg/kg was 25 to 75% in assay [4], under 25% in assay [5] and under 25% in assay [6].
On to `Cc1cccc(CN2CCN(C(=O)OC(C(F)(F)F)C(F)(F)F)CC2)c1N1CCC(NS(C)(=O)=O)CC1` [Example 51, 1,1,1,3,3,3-hexafluoropropan-2-yl 4-(3-methyl-2-(4-(methylsulfonamido)piperidin-1-yl)benzyl)piperazine-1-carboxylate], for which the inhibition at 1 µM in assay [1] is over 75%; in assay [2] it was under 25%; in assay [3], under 25%. In addition, the IC50 is under 100 nM in assay [1], over 1000 nM in assay [2] and over 1000 nM in assay [3]. Also, the inhibition at 5 mg/kg was over 75% in assay [4], under 25% in assay [5] and under 25% in assay [6].
Consider `Cc1ccc(CN2CCN(C(=O)OC(C(F)(F)F)C(F)(F)F)CC2)c(N2CC[C@H](CF)C2)c1` [Example 53, 1,1,1,3,3,3-hexafluoropropan-2-yl (S)-4-(2-(3-(fluoromethyl)pyrrolidin-1-yl)-4-methylbenzyl)piperazine-1-carboxylate], for which the inhibition at 1 µM in assay [1] is over 75%; in assay [2], under 25%; in assay [3], under 25%. The half-inhibitory concentration (IC50) was under 100 nM in assay [1], over 1000 nM in assay [2] and over 1000 nM in assay [3]. Also, the results for the inhibition at 5 mg/kg in assay [4], in assay [5] and in assay [6] were over 75%, under 25% and under 25%, respectively.
In the case of `O=C(OC(C(F)(F)F)C(F)(F)F)N1CCN(Cc2ccc(C(F)(F)F)cc2N2CC[C@H](CF)C2)CC1` [Example 54, 1,1,1,3,3,3-hexafluoropropan-2-yl (S)-4-(2-(3-(fluoromethyl)pyrrolidin-1-yl)-4-(trifluoromethyl)benzyl)piperazine-1-carboxylate], the inhibition at 1 µM was over 75% in assay [1], under 25% in assay [2] and under 25% in assay [3]. Moreover, the IC50 in assay [1] is under 100 nM; in assay [2], over 1000 nM; in assay [3], over 1000 nM. The inhibition at 5 mg/kg in assay [4] was over 75%; in assay [5], under 25%; in assay [6] it was under 25%.
With `O=C(OC(C(F)(F)F)C(F)(F)F)N1CCN(Cc2cccc(Cl)c2N2CC[C@H](CF)C2)CC1` [Example 55, 1,1,1,3,3,3-hexafluoropropan-2-yl (S)-4-(3-chloro-2-(3-(fluoromethyl)pyrrolidin-1-yl)benzyl)piperazine-1-carboxylate], the figures for the inhibition at 1 µM in assay [1], in assay [2] and in assay [3] were over 75%, under 25% and under 25%, respectively. For the same compound, the IC50 was under 100 nM in assay [1], over 1000 nM in assay [2] and over 1000 nM in assay [3]. Further, the inhibition at 5 mg/kg in assay [4] is over 75%; in assay [5], under 25%; in assay [6], under 25%.
On to `Cc1cccc(CN2CCN(C(=O)OC(C(F)(F)F)C(F)(F)F)CC2)c1N1CC[C@H](CF)C1` [Example 56, 1,1,1,3,3,3-hexafluoropropan-2-yl (S)-4-(2-(3-(fluoromethyl)pyrrolidin-1-yl)-3-methylbenzyl)piperazine-1-carboxylate], for which the figures for the inhibition at 1 µM in assay [1], in assay [2] and in assay [3] were over 75%, under 25% and under 25%, respectively. Also, the IC50 in assay [1] was under 100 nM; in assay [2] it was over 1000 nM; in assay [3] it was over 1000 nM. The inhibition at 5 mg/kg in assay [4] was over 75%; in assay [5], under 25%; in assay [6], under 25%.
On to `O=C(OC(C(F)(F)F)C(F)(F)F)N1CCN(Cc2cccc(Cl)c2N2CC3CCC(C2)O3)CC1` [Example 57, 1,1,1,3,3,3-hexafluoropropan-2-yl 4-(2-(8-oxa-3-azabicyclo[3.2.1]octan-3-yl)-3-chlorobenzyl)piperazine-1-carboxylate], for which the values for the inhibition at 1 µM in assay [1], in assay [2] and in assay [3] were over 75%, under 25% and under 25%, respectively. The IC50 is under 100 nM in assay [1], over 1000 nM in assay [2] and over 1000 nM in assay [3]. Also, the inhibition at 5 mg/kg was over 75% in assay [4], under 25% in assay [5] and under 25% in assay [6].
For `CS(=O)(=O)N[C@@H]1CCN(c2cc(C(F)(F)F)ccc2CN2CCN(C(=O)OC(C(F)(F)F)C(F)(F)F)CC2)C1` [Example 60, 1,1,1,3,3,3-hexafluoropropan-2-yl (R)-4-(2-(3-(methylsulfonamido)pyrrolidin-1-yl)-4-(trifluoromethyl)benzyl)piperazine-1-carboxylate], the inhibition at 1 µM in assay [1] was over 75%; in assay [2], under 25%; in assay [3] it was under 25%. Also, the IC50 is under 100 nM in assay [1], over 1000 nM in assay [2] and over 1000 nM in assay [3]. For the same compound, the inhibition at 5 mg/kg in assay [4] was over 75%; in assay [5], under 25%; in assay [6], under 25%.
